From ChEMBL document CHEMBL1155388 (Bioorg Med Chem Lett, 2010) come the findings set out here.

Molecules are shown by their SMILES. pEC50: −log10 of the molar value. Calls of active or inactive are those of the source. The calls are words filed in the database; no cut-off is given here.

What all share (assay type): functional, cell-based
The target in experiment [1] is T1, Muscarinic acetylcholine receptor M5 (Homo sapiens) (UniProt P08912).
T1 sequence (whole entry): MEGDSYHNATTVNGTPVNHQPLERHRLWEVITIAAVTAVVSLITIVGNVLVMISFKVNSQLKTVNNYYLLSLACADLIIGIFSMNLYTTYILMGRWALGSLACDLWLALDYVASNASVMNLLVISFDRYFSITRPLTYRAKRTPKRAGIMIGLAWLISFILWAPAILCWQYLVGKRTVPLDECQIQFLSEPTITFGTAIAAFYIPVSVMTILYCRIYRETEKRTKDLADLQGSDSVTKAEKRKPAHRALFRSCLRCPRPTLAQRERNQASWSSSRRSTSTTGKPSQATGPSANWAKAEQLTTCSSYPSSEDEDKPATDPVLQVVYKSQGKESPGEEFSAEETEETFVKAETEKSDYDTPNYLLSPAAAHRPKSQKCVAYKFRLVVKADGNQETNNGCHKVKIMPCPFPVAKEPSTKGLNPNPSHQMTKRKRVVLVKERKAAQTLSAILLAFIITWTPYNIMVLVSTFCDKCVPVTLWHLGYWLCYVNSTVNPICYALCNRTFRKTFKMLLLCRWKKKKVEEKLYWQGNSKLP
The experiment is described as follows: Potentiation of muscarinic M5 receptor expressed in CHO cells assessed as effect on acetylcholine-induced intracellular calcium mobilization up to 30 uM after 1 hr by FLIPR assay. (A change in cytosolic calcium serves as a functional read-out for many receptors and channels.)

Experiment [2] has as its target T2, Muscarinic acetylcholine receptor M1 (Homo sapiens) (UniProt P11229).
T2 sequence (whole entry): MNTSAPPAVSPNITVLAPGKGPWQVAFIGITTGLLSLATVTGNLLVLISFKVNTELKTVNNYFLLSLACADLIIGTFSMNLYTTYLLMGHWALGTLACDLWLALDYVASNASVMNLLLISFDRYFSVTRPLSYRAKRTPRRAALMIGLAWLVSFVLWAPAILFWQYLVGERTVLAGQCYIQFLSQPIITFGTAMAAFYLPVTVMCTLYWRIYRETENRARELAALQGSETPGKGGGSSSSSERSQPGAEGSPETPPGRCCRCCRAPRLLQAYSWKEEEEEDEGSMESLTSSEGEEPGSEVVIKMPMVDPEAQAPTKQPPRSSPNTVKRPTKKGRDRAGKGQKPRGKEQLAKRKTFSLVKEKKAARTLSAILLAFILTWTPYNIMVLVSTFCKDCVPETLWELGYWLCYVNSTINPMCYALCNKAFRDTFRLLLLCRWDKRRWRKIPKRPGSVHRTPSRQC
As to the kind of experiment: Potentiation of muscarinic M1 receptor expressed in CHO cells assessed as effect on acetylcholine-induced intracellular calcium mobilization at 30 uM after 1 hr by FLIPR assay.

Experiment [3] concerns the target T2, Muscarinic acetylcholine receptor M1 (Homo sapiens). The experiment is described as follows: Potentiation of muscarinic M1 receptor expressed in CHO cells assessed as effect on acetylcholine-induced intracellular calcium mobilization after 1 hr by FLIPR assay relative to acetylcholine. Also noted: concentration or dose not given beside the values.
The target of experiment [4] is T3, Muscarinic acetylcholine receptor M1 (Homo sapiens, UniProt P11229).
T3 sequence (P11229 whole entry): T2 sequence (whole entry)
The experiment is described as follows: Potentiation of muscarinic M1 receptor expressed in CHO cells assessed as effect on acetylcholine-induced intracellular calcium mobilization after 1 hr by FLIPR assay.

For experiment [5], the target named is T2, Muscarinic acetylcholine receptor M1 (Homo sapiens). As to the kind of experiment: Potentiation of muscarinic M1 receptor expressed in CHO cells assessed as effect on acetylcholine-induced intracellular calcium mobilization at 100 uM after 1 hr by FLIPR assay.
The target is the same in experiment [6]. The experiment is described as follows: Potentiation of muscarinic M1 receptor expressed in CHO cells assessed as effect on acetylcholine-induced intracellular calcium mobilization at 10 uM after 1 hr by FLIPR assay.
In experiment [7] the target is T1, Muscarinic acetylcholine receptor M5 (Homo sapiens). The experiment is described as follows: Potentiation of muscarinic M5 receptor expressed in CHO cells assessed as effect on acetylcholine-induced intracellular calcium mobilization at 30 uM after 1 hr by FLIPR assay relative to acetylcholine.
The target of experiment [8] is Muscarinic acetylcholine receptor M3 (Homo sapiens) (UniProt P20309). The experiment is described as follows: Potentiation of muscarinic M3 receptor expressed in CHO cells assessed as effect on acetylcholine-induced intracellular calcium mobilization at 30 uM after 1 hr by FLIPR assay relative to acetylcholine.
Chain of Muscarinic acetylcholine receptor M3 (Homo sapiens) (P20309 whole entry, looked up): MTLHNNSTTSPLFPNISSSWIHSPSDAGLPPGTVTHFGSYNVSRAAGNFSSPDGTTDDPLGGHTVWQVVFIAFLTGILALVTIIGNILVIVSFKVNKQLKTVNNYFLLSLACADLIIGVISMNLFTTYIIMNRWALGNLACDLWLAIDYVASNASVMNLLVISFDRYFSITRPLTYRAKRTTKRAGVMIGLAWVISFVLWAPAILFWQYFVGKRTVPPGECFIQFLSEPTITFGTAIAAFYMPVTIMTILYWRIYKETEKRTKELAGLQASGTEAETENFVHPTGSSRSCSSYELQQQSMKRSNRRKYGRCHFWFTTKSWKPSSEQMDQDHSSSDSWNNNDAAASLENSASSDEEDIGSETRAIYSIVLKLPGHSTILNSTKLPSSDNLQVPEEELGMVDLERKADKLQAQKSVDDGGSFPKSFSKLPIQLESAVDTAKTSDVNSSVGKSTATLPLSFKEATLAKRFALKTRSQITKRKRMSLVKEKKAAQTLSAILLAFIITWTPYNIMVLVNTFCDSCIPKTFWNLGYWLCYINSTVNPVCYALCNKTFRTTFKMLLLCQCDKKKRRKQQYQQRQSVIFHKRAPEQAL
For experiment [9], the target named is T1, Muscarinic acetylcholine receptor M5 (Homo sapiens). The experiment is described as follows: Potentiation of muscarinic M5 receptor expressed in CHO cells assessed as effect on acetylcholine-induced intracellular calcium mobilization at 10 uM after 1 hr by FLIPR assay relative to acetylcholine.
The target in experiment [10] is T4, Muscarinic acetylcholine receptor M4 (Homo sapiens) (UniProt P08173).
T4 sequence (whole entry): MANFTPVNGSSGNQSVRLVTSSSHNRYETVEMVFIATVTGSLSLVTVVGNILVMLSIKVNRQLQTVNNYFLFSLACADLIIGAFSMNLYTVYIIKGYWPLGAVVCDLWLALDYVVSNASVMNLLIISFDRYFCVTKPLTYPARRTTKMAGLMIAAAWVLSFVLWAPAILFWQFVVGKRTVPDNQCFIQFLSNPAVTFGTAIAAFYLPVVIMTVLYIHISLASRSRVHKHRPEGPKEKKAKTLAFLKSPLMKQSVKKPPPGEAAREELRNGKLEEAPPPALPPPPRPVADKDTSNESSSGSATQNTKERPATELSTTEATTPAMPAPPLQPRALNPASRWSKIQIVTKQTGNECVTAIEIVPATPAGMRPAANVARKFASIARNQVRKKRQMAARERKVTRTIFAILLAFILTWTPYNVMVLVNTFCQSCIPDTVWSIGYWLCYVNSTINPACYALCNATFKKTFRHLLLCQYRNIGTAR
As to the kind of experiment: Potentiation of muscarinic M4 receptor expressed in CHO cells co-transfected with Gqi5 assessed as effect on acetylcholine-induced intracellular calcium mobilization up to 30 uM after 1 hr by FLIPR assay.

For experiment [11], the target named is Muscarinic acetylcholine receptor M3 (Homo sapiens) (UniProt P20309). The experiment is described as follows: Potentiation of muscarinic M3 receptor expressed in CHO cells assessed as effect on acetylcholine-induced intracellular calcium mobilization up to 30 uM after 1 hr by FLIPR assay.
The target in experiment [12] is T5, Muscarinic acetylcholine receptor M2 (Homo sapiens) (UniProt P08172).
T5 sequence (whole entry): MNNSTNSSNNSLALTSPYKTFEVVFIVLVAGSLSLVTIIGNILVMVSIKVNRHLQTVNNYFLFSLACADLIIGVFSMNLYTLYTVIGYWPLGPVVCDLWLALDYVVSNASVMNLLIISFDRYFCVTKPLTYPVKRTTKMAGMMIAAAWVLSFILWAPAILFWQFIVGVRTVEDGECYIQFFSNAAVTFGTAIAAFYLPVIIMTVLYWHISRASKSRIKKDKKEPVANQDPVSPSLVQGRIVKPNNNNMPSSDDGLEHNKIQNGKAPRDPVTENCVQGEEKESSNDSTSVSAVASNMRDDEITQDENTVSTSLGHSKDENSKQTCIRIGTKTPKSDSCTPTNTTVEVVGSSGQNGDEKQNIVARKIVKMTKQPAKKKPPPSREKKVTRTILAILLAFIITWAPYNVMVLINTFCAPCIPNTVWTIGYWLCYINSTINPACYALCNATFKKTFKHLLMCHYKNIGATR
As to the kind of experiment: Potentiation of muscarinic M2 receptor expressed in CHO cells co-transfected with Gqi5 assessed as effect on acetylcholine-induced intracellular calcium mobilization up to 30 uM after 1 hr by FLIPR assay.

As to `Cn1cc(-c2cc(F)c(CN3C(=O)C(=O)c4ccccc43)c(F)c2)cn1`, the fold change (FC) in [1] and in [2] was 2 each time. For the same molecule, in experiment [3], the Activity came out at 60%. Moreover, the negative-log EC50 (pEC50) in experiment [4] is 6.07.
On to `Cn1cc(-c2cc(F)c(CN3C(=O)C(=O)c4cccc(F)c43)c(F)c2)cn1`, for which the Activity in experiment [3] was 40%. Also, in experiment [4], the negative logarithm of the EC50 (pEC50) was 5.96.
On to `COc1ccc(Cn2cc(C(=O)O)c(=O)c3ccccc32)cc1`, for which the fold change (FC) in experiment [5] turned out to be 100. The Activity in [3] is 100%.
With `Cn1cc(-c2ccc(CN3C(=O)C(=O)c4c(F)ccc(F)c43)c(F)c2)cn1`, the Activity in [3] was found to be 50%. Moreover, the pEC50 in experiment [4] is 5.92.
As to `Cn1cc(-c2ccc(CN3C(=O)C(=O)c4ccccc43)cc2)cn1`, the fold change (FC) in experiment [6] turned out to be 5; in experiment [7], 14; in experiment [2] it was 14; in experiment [9], 5. The Activity in experiment [7] worked out at 35%; in experiment [8], 25%; in [3], 80%. In addition, in [4], the pEC50 was 5.64.
In the case of `Cn1cc(-c2ccc(CN3C(=O)C(=O)c4cccc(F)c43)c(F)c2)cn1`, the Activity in experiment [3] was 55%. In addition, the pEC50 in experiment [4] is 5.64.
Consider `Cn1cc(-c2ccc(CN3C(=O)C(=O)c4ccccc43)c(F)c2)cn1`, for which the outcome in experiment [10], in [1], in experiment [11] and in experiment [12] was inactive. Besides, the fold change (FC) in experiment [1] and in experiment [2] was 3 each time. Moreover, in experiment [3], the Activity stood at 65%. The pEC50 in [4] is 6.08.

The pEC50 is the EC50 on a negative log10 scale, so that one unit is a factor of ten.
